In PubChem BioAssay (NCI):
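How tested: cells in 96-well plates exposed to compound for 48 hours at five concentrations. TGI: total growth inhibition.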

Legend:
Assay in all cases: NCI tumour cell line growth inhibition, 48 h
786-0 renal = tested on: 786-0 renal
A498 renal = tested on: A498 renal
A549 NSCLC = tested on: A549 NSCLC
ACHN renal = tested on: ACHN renal
CCRF-CEM leukemia = tested on: CCRF-CEM leukemia
COLO 205 colon = tested on: COLO 205 colon
DLD-1 colon = tested on: DLD-1 colon
EKVX NSCLC = tested on: EKVX NSCLC
HCC-2998 colon = tested on: HCC-2998 colon
HCT-116 colon = tested on: HCT-116 colon
HCT-15 colon = tested on: HCT-15 colon
HL-60(TB) leukemia = tested on: HL-60(TB) leukemia
HOP-18 NSCLC = tested on: HOP-18 NSCLC
HOP-62 NSCLC = tested on: HOP-62 NSCLC
HOP-92 NSCLC = tested on: HOP-92 NSCLC
HT29 colon = tested on: HT29 colon
IGROV1 ovarian = tested on: IGROV1 ovarian
K-562 leukemia = tested on: K-562 leukemia
KM12 colon = tested on: KM12 colon
KM20L2 colon = tested on: KM20L2 colon
LOX IMVI melanoma = tested on: LOX IMVI melanoma
LXFL 529 NSCLC = tested on: LXFL 529 NSCLC
M14 melanoma = tested on: M14 melanoma
M19-MEL melanoma = tested on: M19-MEL melanoma
MALME-3M melanoma = tested on: MALME-3M melanoma
MOLT-4 leukemia = tested on: MOLT-4 leukemia
NCI-H226 lung = tested on: NCI-H226 lung
NCI-H23 lung = tested on: NCI-H23 lung
NCI-H460 lung = tested on: NCI-H460 lung
NCI-H522 lung = tested on: NCI-H522 lung
OVCAR-3 ovarian = tested on: OVCAR-3 ovarian
OVCAR-4 ovarian = tested on: OVCAR-4 ovarian
OVCAR-5 ovarian = tested on: OVCAR-5 ovarian
OVCAR-8 ovarian = tested on: OVCAR-8 ovarian
RPMI-8226 leukemia = tested on: RPMI-8226 leukemia
RXF 393 renal = tested on: RXF 393 renal
RXF-631 renal = tested on: RXF-631 renal
SF-268 CNS = tested on: SF-268 CNS
SF-295 CNS = tested on: SF-295 CNS
SF-539 CNS = tested on: SF-539 CNS
SK-MEL-2 melanoma = tested on: SK-MEL-2 melanoma
SK-MEL-28 melanoma = tested on: SK-MEL-28 melanoma
SK-MEL-5 melanoma = tested on: SK-MEL-5 melanoma
SK-OV-3 ovarian = tested on: SK-OV-3 ovarian
SN12C renal = tested on: SN12C renal
SNB-19 CNS = tested on: SNB-19 CNS
SNB-75 CNS = tested on: SNB-75 CNS
SNB-78 CNS = tested on: SNB-78 CNS
SW-620 colon = tested on: SW-620 colon
TK-10 renal = tested on: TK-10 renal
U251 CNS = tested on: U251 CNS
UACC-257 melanoma = tested on: UACC-257 melanoma
UACC-62 melanoma = tested on: UACC-62 melanoma
UO-31 renal = tested on: UO-31 renal
XF 498 CNS = tested on: XF 498 CNS
CAKI-1 renal = tested on: CAKI-1 renal
DMS 114 small cell lung = tested on: DMS 114 small cell lung
DMS 273 small cell lung = tested on: DMS 273 small cell lung
SR leukemia = tested on: SR leukemia

SMILES: Cc1nc2ccccc2c(=O)[nH]1
- TGI (786-0 renal): > 100 µM
- TGI (A498 renal): > 100 µM
- TGI (A549 NSCLC): > 100 µM
- TGI (ACHN renal): > 100 µM
- TGI (CCRF-CEM leukemia): > 100 µM
- TGI (COLO 205 colon): > 100 µM
- TGI (DLD-1 colon): > 100 µM
- TGI (EKVX NSCLC): > 100 µM
- TGI (HCC-2998 colon): > 100000 nM
- TGI (HCT-116 colon): > 100000 nM
- TGI (HCT-15 colon): > 100 µM
- TGI (HL-60(TB) leukemia): > 100 µM
- TGI (HOP-18 NSCLC): > 100 µM
- TGI (HOP-62 NSCLC): > 100 µM
- TGI (HOP-92 NSCLC): > 100 µM
- TGI (HT29 colon): > 100 µM
- TGI (IGROV1 ovarian): > 100 µM
- TGI (K-562 leukemia): > 100 µM
- TGI (KM12 colon): > 100 µM
- TGI (KM20L2 colon): > 100000 nM
- TGI (LOX IMVI melanoma): > 100 µM
- TGI (LXFL 529 NSCLC): > 100000 nM
- TGI (M14 melanoma): > 100 µM
- TGI (M19-MEL melanoma): > 100 µM
- TGI (MALME-3M melanoma): > 100 µM
- TGI (MOLT-4 leukemia): > 100 µM
- TGI (NCI-H226 lung): > 100 µM
- TGI (NCI-H23 lung): > 100 µM
- TGI (NCI-H460 lung): > 100 µM
- TGI (NCI-H522 lung): > 100 µM
- TGI (OVCAR-3 ovarian): > 100 µM
- TGI (OVCAR-4 ovarian): > 100 µM
- TGI (OVCAR-5 ovarian): > 100 µM
- TGI (OVCAR-8 ovarian): > 100 µM
- TGI (RPMI-8226 leukemia): > 100 µM
- TGI (RXF 393 renal): > 100 µM
- TGI (RXF-631 renal): > 100 µM
- TGI (SF-268 CNS): > 100 µM
- TGI (SF-295 CNS): > 100 µM
- TGI (SF-539 CNS): > 100 µM
- TGI (SK-MEL-2 melanoma): > 100 µM
- TGI (SK-MEL-28 melanoma): > 100 µM
- TGI (SK-MEL-5 melanoma): > 100000 nM
- TGI (SK-OV-3 ovarian): > 100 µM
- TGI (SN12C renal): > 100 µM
- TGI (SNB-19 CNS): > 100 µM
- TGI (SNB-75 CNS): > 100 µM
- TGI (SNB-78 CNS): > 100 µM
- TGI (SW-620 colon): > 100 µM
- TGI (TK-10 renal): > 100 µM
- TGI (U251 CNS): > 100 µM
- TGI (UACC-257 melanoma): > 100 µM
- TGI (UACC-62 melanoma): > 100 µM
- TGI (UO-31 renal): > 100 µM
- TGI (XF 498 CNS): > 100 µM

SMILES: CCC(C)C(=O)c1c(O)c(C/C=C(\C)CCC=C(C)C)c(O)c2c(C(O)CC)cc(=O)oc12 (stereo not given)
- TGI (A498 renal): 6.15 µM
- TGI (A549 NSCLC): 11.4 µM
- TGI (ACHN renal): 8.38 µM
- TGI (CAKI-1 renal): 12.1 µM
- TGI (CCRF-CEM leukemia): 3.44 µM
- TGI (COLO 205 colon): 7.27 µM
- TGI (DLD-1 colon): 11.3 µM
- TGI (DMS 114 small cell lung): 3.35 µM
- TGI (DMS 273 small cell lung): 8.29 µM
- TGI (EKVX NSCLC): 10.1 µM
- TGI (HCC-2998 colon): 2090 nM
- TGI (HCT-116 colon): 2210 nM
- TGI (HL-60(TB) leukemia): 3.48 µM
- TGI (HOP-62 NSCLC): 4.08 µM
- TGI (HOP-92 NSCLC): 5.47 µM
- TGI (HT29 colon): 3.62 µM
- TGI (IGROV1 ovarian): 13.6 µM
- TGI (K-562 leukemia): 3.31 µM
- TGI (KM12 colon): 11.4 µM
- TGI (KM20L2 colon): 2680 nM
- TGI (LOX IMVI melanoma): 12.6 µM
- TGI (LXFL 529 NSCLC): 2990 nM
- TGI (M14 melanoma): 14.4 µM
- TGI (M19-MEL melanoma): 6.51 µM
- TGI (MALME-3M melanoma): 5.28 µM
- TGI (MOLT-4 leukemia): 3.94 µM
- TGI (NCI-H226 lung): 9.11 µM
- TGI (NCI-H23 lung): 3.89 µM
- TGI (NCI-H460 lung): 7.23 µM
- TGI (NCI-H522 lung): 5.73 µM
- TGI (OVCAR-3 ovarian): 12.6 µM
- TGI (OVCAR-4 ovarian): 10.5 µM
- TGI (OVCAR-5 ovarian): 17.9 µM
- TGI (RPMI-8226 leukemia): 3.51 µM
- TGI (RXF 393 renal): 7.19 µM
- TGI (RXF-631 renal): 14.2 µM
- TGI (SF-268 CNS): 10.8 µM
- TGI (SF-295 CNS): 7.82 µM
- TGI (SF-539 CNS): 7.43 µM
- TGI (SK-MEL-2 melanoma): 3.83 µM
- TGI (SK-MEL-28 melanoma): 5.57 µM
- TGI (SK-MEL-5 melanoma): 2740 nM
- TGI (SK-OV-3 ovarian): 10.8 µM
- TGI (SN12C renal): 8.26 µM
- TGI (SNB-19 CNS): 16.2 µM
- TGI (SNB-75 CNS): 5.84 µM
- TGI (SNB-78 CNS): 16.7 µM
- TGI (SR leukemia): 3.48 µM
- TGI (SW-620 colon): 14 µM
- TGI (TK-10 renal): 13.1 µM
- TGI (U251 CNS): 9.67 µM
- TGI (UACC-257 melanoma): 6.84 µM
- TGI (UACC-62 melanoma): 5.15 µM
- TGI (UO-31 renal): 6.95 µM
- TGI (XF 498 CNS): 4.53 µM
